From the supplement of paper PMC10307832

Each cell line was assayed with CCCS(=O)(=O)Nc1ccc(F)c(C(=O)c2c[nH]c3ncc(-c4ccc(Cl)cc4)cc23)c1F [Vemurafenib] + O=C(CCCCCCC(=O)Nc1ccccc1)NO [Vorinostat] (partner 1 µM) (assay: relative viability (nuclei count vs DMSO), 5 days (fraction); higher = more cells survive). Conditions: first compound 0.03162 µM.
Method in brief: (§1)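 Lung cancer cell lines were seeded in 1536-well plates and dosed by pin tool the next day, with either a single drug or a fixed anchor-drug dose combined with five library-drug doses (not always all listed) spaced in √10 steps. Five days later, one step fixed the cells and stained their nuclei (final 0.05% Triton X-100, 1% formaldehyde, 1 ug/ml Hoechst), and nuclei were counted on 4× images. Relative viability is the nuclei count in treated wells divided by the count in vehicle wells, and each value is the median of duplicate plates.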

In order of falling relative viability:
1. ABC-1  1.06
2. NCI-H727  1.01
3. NCI-H1666  0.972
4. NCI-H3122  0.962
5. NCI-H2087  0.894
6. COR-L 105  0.838
7. NCI-H2009  0.813
8. NCI-H1734  0.809
9. A-427  0.807
10. HCC-827  0.796
11. HCC-15  0.775
12. NCI-H2170  0.733
13. EKVX  0.712
14. LXF-289  0.708
15. NCI-H2085  0.703
16. SK-LU-1  0.699
17. NCI-H520  0.68
18. CAL-12T  0.673
19. NCI-H358  0.671
20. NCI-H460  0.661
21. NCI-H1395  0.627
22. LC-2-ad  0.627
23. RERF-LC-KJ  0.616
24. NCI-H2347  0.542
25. NCI-H1944  0.538
26. NCI-H23  0.53
27. LU99A  0.513
28. NCI-H2228  0.457
29. COR-L23  0.443
30. HARA  0.424
31. NCI-H650  0.413
32. NCI-H647  0.411
33. EMC-BAC-2  0.361

Same assay, conditions: first compound 0.1 µM

In order of rising relative viability:
1. NCI-H650  0.384
2. EMC-BAC-2  0.411
3. COR-L23  0.412
4. HARA  0.517
5. NCI-H2228  0.536
6. NCI-H2347  0.539
7. LU99A  0.578
8. NCI-H358  0.587
9. NCI-H23  0.588
10. NCI-H647  0.643
11. LXF-289  0.656
12. RERF-LC-KJ  0.659
13. LC-2-ad  0.669
14. SK-LU-1  0.687
15. CAL-12T  0.698
16. NCI-H1395  0.707
17. NCI-H520  0.714
18. NCI-H460  0.729
19. NCI-H2009  0.731
20. NCI-H2085  0.736
21. LCLC-97TM1  0.74
22. NCI-H1734  0.783
23. HCC-15  0.8
24. A-427  0.819
25. NCI-H3122  0.916
26. NCI-H2087  0.958
27. ABC-1  0.972
28. NCI-H727  0.978
29. NCI-H1666  1.05

Same assay, conditions: first compound 0.3162 µM

In order of falling relative viability:
1. NCI-H727  1.41
2. NCI-H1666  1.08
3. CAL-12T  1.04
4. NCI-H3122  1.01
5. COR-L 105  0.903
6. HCC-15  0.899
7. ABC-1  0.831
8. LXF-289  0.805
9. LCLC-97TM1  0.777
10. NCI-H358  0.768
11. NCI-H1734  0.759
12. EKVX  0.745
13. NCI-H2170  0.737
14. NCI-H520  0.718
15. NCI-H2009  0.715
16. NCI-H1944  0.671
17. NCI-H460  0.665
18. HCC-827  0.663
19. RERF-LC-KJ  0.625
20. NCI-H2085  0.618
21. NCI-H647  0.6
22. NCI-H2228  0.589
23. NCI-H23  0.561
24. SK-LU-1  0.535
25. NCI-H2087  0.531
26. NCI-H2347  0.52
27. NCI-H1395  0.499
28. HARA  0.399
29. COR-L23  0.373
30. LC-2-ad  0.364
31. NCI-H650  0.263

Same assay, conditions: first compound 1 µM

In order of falling relative viability:
1. ABC-1  1.45
2. NCI-H727  1.27
3. NCI-H3122  1.04
4. NCI-H1666  1.01
5. NCI-H2085  0.968
6. EKVX  0.936
7. A-427  0.875
8. CAL-12T  0.875
9. SK-LU-1  0.835
10. HCC-827  0.816
11. COR-L 105  0.815
12. HCC-15  0.805
13. LXF-289  0.789
14. NCI-H2170  0.754
15. NCI-H460  0.723
16. NCI-H2087  0.716
17. NCI-H1395  0.709
18. RERF-LC-KJ  0.709
19. NCI-H1734  0.702
20. LC-2-ad  0.687
21. NCI-H2009  0.665
22. NCI-H358  0.65
23. NCI-H2347  0.624
24. NCI-H2228  0.595
25. HARA  0.54
26. NCI-H1944  0.515
27. NCI-H520  0.497
28. LU99A  0.466
29. NCI-H647  0.442
30. COR-L23  0.441
31. LCLC-97TM1  0.42
32. EMC-BAC-2  0.415
33. NCI-H23  0.402
34. NCI-H650  0.296

What follows are cell lines tested with COc1cccc2cc(-c3nc([C@H]4CC[C@H](C(=O)O)CC4)n4ncnc(N)c34)[nH]c12 [OSI-027] + CS(=O)(=O)CCNCc1ccc(-c2ccc3ncnc(Nc4ccc(OCc5cccc(F)c5)c(Cl)c4)c3c2)o1 [Lapatinib] (partner 2 µM) in the same assay as above. Conditions: first compound 0.01 µM.
Method in brief: as §1

In order of rising relative viability:
1. HCC-827  0.151
2. EKVX  0.169
3. NCI-H2170  0.268
4. COR-L 105  0.34
5. NCI-H358  0.444
6. CAL-12T  0.648
7. NCI-H2085  0.7
8. HARA  0.741
9. NCI-H1944  0.802
10. NCI-H520  0.832
11. LU99A  0.834
12. EMC-BAC-2  0.843
13. NCI-H1395  0.854
14. HCC-15  0.872
15. COR-L23  0.887
16. SK-LU-1  0.888
17. NCI-H727  0.906
18. NCI-H2009  0.97
19. NCI-H2347  0.983
20. LXF-289  0.99
21. NCI-H1734  1.03
22. A-427  1.04
23. LC-2-ad  1.05
24. NCI-H2228  1.05
25. NCI-H23  1.07
26. NCI-H3122  1.09
27. NCI-H2087  1.11
28. NCI-H460  1.11
29. NCI-H647  1.11
30. LCLC-97TM1  1.31
31. ABC-1  1.33
